Legend:
Type in all cases: in vivo, horse
tendon/ligament injuries = test: Single armed pilot trial in equine connective tissue injuries, lesion size by ultrasonography (Example 7)
Method: The time since injury of each horse was noted. […] Side effects and tolerability were also recorded.
14 horses with 15 injured limbs were enrolled in the study between March and May 2021. The injuries comprised 9 tendon and 6 ligament injuries, with 12 injuries on the left side of the horse and 3 on the right. The mean time since injury was ˜ 12 months. The tendon injuries comprised 2 acute injuries (<1 month old) and 7 chronic injuries, with a mean time since injury of 13.1 months, and a range of 9-20 months. The ligamentous injuries comprised 6 chronic injuries, with a mean time since injury of 14.3 months and a range of 4-30 months.
All statistical analysis was performed on SPSS v27. Missing values were handled by last observation carried forward. Descriptive statistics were used to describe baseline and follow-up values. The results were first tested for normality using the Shapiro-Wilk test. The results at weeks 3, 5 and 7 were then analysed compared to baseline using two-tailed paired Student's t-tests once normality was proven. One-tailed Pearson correlation test was performed to determine if outcomes was correlated with time since injury as we hypothesise that older, more established injuries may benefit less from our supplementation.

tendon/ligament lesions = test: Equine tendon/ligament lesions from original injury through treatment (Example 8); details: oral 160,000 IU once per day
Method: Side effects and tolerability were also recorded. The administration of vitamin A supplement, and the vitamin A supplement used, were the same as that of Example 7. 7 horses with 7 injured limbs were enrolled in the study between March and May 2021. The injuries comprised 3 tendon and 4 ligament injuries. The inclusion criteria were polo horses with diagnosed tendon/ligament injuries regardless of time since injury. The exclusion criteria were horses with acute connective tissue injuries. All statistical analysis was performed on SPSS v27. Missing values were handled by last observation carried forward. Descriptive statistics were used to describe baseline and follow-up values. The results were first tested for normality using the Shapiro-Wilk test. The results at weeks 3, 5 and 7 were then analysed compared to baseline using two-tailed paired Student's t-tests once normality was proven.

Tendon injury = test: Echogenicity ratio of tendon lesion or injured tendon to adjacent healthy tendon (Example 9)
Text: Structures composed of different tissue will have different echogenicities. The health of a tissue such as a tendon can be assessed by comparing the echogenicity of the tissue with that of a corresponding healthy tissue. Healthy tendons comprising native tissue and normal architecture are usually hyperechoic and appear white on the sonogram; they are capable of reflecting ultrasound that is cast over the tissue. An injured tendon comprising a lesion will appear as less hyperechoic, and more hypoechoic as tendon fibers are interrupted and defects are usually filled with fluid, blood, or fat. Severe lesions will be anechoic, and will display as completely dark on the sonogram. […] The echogenicity of a tendon lesion was assessed by comparing grey scale statistics of the tendon lesion with the values of healthy adjacent tendon tissue (FIG. 18(b)). Due to equine anatomy, there is always a directly adjacent healthy tendon to use as a control (ultrasonography is […] by depth of tissue). The statistics comprised determining the mean pixel intensity at a number of random points on the lesion and the healthy tendon, and calculating a mean value for the echogenicity of each tissue. A ratio of mean echnogenicity of the lesion and the healthy tissue was determined to assess the extent of damage/healing at the lesion. Vitamin A supplement used, its administration, and the subjects investigated, comprise those of Example 7.

[1] = tested on: connective tissue injuries (tendon/ligament lesions); test: Post-treatment maintenance dose, double-blind randomised placebo-controlled trial (Example 10)
Text: Maintenance dose of vitamin A palmitate (retinyl palmitate) in a vehicle, delivered in dry feed at 8,000 IU per kg feed dry matter.
The methodology and subjects of the investigation comprise those of Example 7.
The trial was a double-blind randomised controlled trial.

injured tendon/ligament = test: Effect of activity level on connective tissue improvement (Example 11); details: week 7, full-treatment doses
Method: The vitamin A supplement used, its administration, and the subjects of the investigation comprise those of Example 7. Improvement (as a % of baseline) of the injured tendon/ligament was performed at 7 weeks into the trial. All 14 horses were administered full-treatment doses of vitamin A supplement from week 0 to week 7 whilst being put to work. 7 horses were put on light/no work and 7 on full work. The allocation of each horse into one of the two groups was determined by the respective owner of the horse, who decided based on whether they could afford for the horse to be put on light work (and thus investigate the isolated effect of vitamin A supplement on lesion progression) or whether the horse was required to be put back to full work.

Structure (SMILES): CCCCCCCCCCCCCCCC(=O)OC/C=C(C)/C=C/C=C(C)/C=C/C1=C(C)CCCC1(C)C [vitamin A supplement, Vitamin A palmitate]
- Mean lesion size (tendon/ligament injuries; baseline, 15 injuries): 41.44%
- Percentage improvement, baseline to week 7 (tendon/ligament injuries; outlier at 20 months since injury, complete avulsion of the ligament): −25%
- Percentage improvement, baseline to week 7 (tendon/ligament injuries; two outlier subjects at 12 months since injury): 100%
- Mean lesion size (tendon/ligament injuries; week 3, oral 160,000 IU once per day, p=0.169 vs baseline): 35.87%
- Mean lesion size (tendon/ligament injuries; week 5, oral 160,000 IU once per day, p<0.001 vs baseline): 28.37%
- Mean lesion size (tendon/ligament injuries; week 7, oral 160,000 IU once per day, p=0.006 vs baseline): 31.73%
- Change in ligament lesion size, baseline to week 7 (tendon/ligament lesions; ligaments, outlier excluded (n=3)): reduction in the size of two of the three lesions
- Mean improvement in lesion size, baseline to week 7 (tendon/ligament lesions; tendons n=3, chronic injuries, p=0.04): 30.62%
- % increase of mean echogenicity ratio (lesion/healthy tendon) (Tendon injury; baseline to week 7): 32.7%
- Mean echogenicity ratio of tendon lesion to adjacent healthy tendon (Tendon injury; baseline, 1 = perfect regeneration of native tendon): 0.52
- Mean echogenicity ratio of injured tendon (area of lesion excluded) to adjacent healthy tendon (Tendon injury; week 0): 0.76
- Mean echogenicity ratio of injured tendon (area of lesion excluded) to adjacent healthy tendon (Tendon injury; week 7, oral 160,000 IU once per day): 0.82
- Mean echogenicity ratio of tendon lesion to adjacent healthy tendon (Tendon injury; week 7, oral 160,000 IU once per day, 1 = perfect regeneration): 0.69
- Change in lesion size from week 7 to week 14, intragroup ([1]; maintenance dose 80,000 IU/day, compared with placebo group): −24.5%
- Mean lesion size of the maintenance dose group ([1]; week 14, after 7 weeks of 80,000 IU/day following 7 weeks of full dose, 31.73% at week 7): ~20.00%
- Lesion health on ultrasonogram in one re-injured subject ([1]; week 14, after 7 weeks of maintenance dose, FIG. 21): the health of this particular lesion deteriorated
- Improvement from baseline (injured tendon/ligament; horses on full work (n=7)): 45.05%
- Improvement from baseline (injured tendon/ligament; horses on light or no work (n=7)): 30.35%
